pIC50: −log10 of the molar value.
Tests used:
PKCα = PKCα (Homo sapiens, UniProt P17252); test: Z'-Lyte recombinant enzyme assay, PKCα; assay type: biochemical
Protocol: (§1) Half maximal inhibitory concentrations of Cmpd 1 were determined by Z’-Lyte biochemical assays (Life Technologies SelectScreen™ Kinase Profiling Services, Thermo Fisher Scientific). Kinome selectivity was determined at 1 μM Cmpd 1 concentration against a panel of 119 kinases. The original kinome tree in Fig. 1b was taken from Ref.[68].

PKCη = PKCη (Homo sapiens, UniProt P24723); test: Z'-Lyte recombinant enzyme assay, PKCη; assay type: biochemical
PKCη, sequence (P24723 whole entry): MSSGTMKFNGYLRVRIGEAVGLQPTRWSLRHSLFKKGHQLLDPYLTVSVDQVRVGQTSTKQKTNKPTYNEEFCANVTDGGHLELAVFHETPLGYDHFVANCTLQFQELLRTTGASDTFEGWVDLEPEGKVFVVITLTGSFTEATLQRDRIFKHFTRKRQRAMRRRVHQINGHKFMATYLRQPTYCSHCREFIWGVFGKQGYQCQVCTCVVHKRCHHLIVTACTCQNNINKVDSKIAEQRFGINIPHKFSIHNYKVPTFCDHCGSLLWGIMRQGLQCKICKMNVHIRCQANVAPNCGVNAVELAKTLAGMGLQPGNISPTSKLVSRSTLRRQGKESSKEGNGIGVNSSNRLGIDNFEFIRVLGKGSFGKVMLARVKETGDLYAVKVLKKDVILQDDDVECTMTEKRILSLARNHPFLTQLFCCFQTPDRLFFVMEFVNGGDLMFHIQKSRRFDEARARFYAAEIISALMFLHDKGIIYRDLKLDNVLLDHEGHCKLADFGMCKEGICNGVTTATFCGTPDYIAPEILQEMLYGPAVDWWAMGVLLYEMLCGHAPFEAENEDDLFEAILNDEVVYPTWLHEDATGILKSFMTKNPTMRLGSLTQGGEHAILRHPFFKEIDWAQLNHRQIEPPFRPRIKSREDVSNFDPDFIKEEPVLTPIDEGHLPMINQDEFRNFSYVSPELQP
Protocol: as §1

ZSF1 obese rats [1] = test: 7-day food consumption and body weight study, Cmpd 1 chow, ZSF1 obese rats; assay type: in vivo, rat; settings: 7 days
Source text: (§2) To evaluate food consumption in different rat strains, cohorts of 10 male ZSF1 obese rats, 8 male ZSF1 lean littermate rats, and 10 age-matched male Sprague Dawley (SD) rats were divided into two groups and fed chow with or without 0.744 g/kg Cmpd 1 (Cmpd 1 chow) for 7 days.

[2] = system: intact glomeruli isolated from SD rats; test: PMA-luminol ROS assay in intact glomeruli; assay type: cell-based; settings: intact SD rat glomeruli, 16 μM PMA, luminol luminescence; read-out: IC50, PMA-induced ROS production (change in velocity)
Protocol: For the phorbol 12-myristate 13-acetate (PMA)-luminol assay, glomeruli isolated from PBS-perfused kidneys were diluted in an HBSS solution containing 1 mM luminol, 0.1 M HEPES, and 0.1% fatty-acid free BSA. Approximately 3000 glomeruli were plated per well in a 96-well white OPTI-plate (Perkin Elmer 6005290). The reaction was started by the addition of PMA to a final concentration of 16 μM in the absence or presence of increasing Cmpd 1. Luminol luminescence was read on an Envision plate reader in kinetic read mode.

ZSF1 lean and SD rats = test: 7-day food consumption and body weight study, Cmpd 1 chow, ZSF1 lean and SD rats; assay type: in vivo, rat; settings: 7 days
Source text: as §2

[3] = 4-day pharmacokinetic study with chow dosing; assay type: in vivo, rat; settings: ZSF1 obese rats, chow dosing approx. 50 mpk/day, corrected for plasma protein binding
Protocol: Three male 12-week old ZSF1 obese rats were fed control or 0.744 g/kg Cmpd 1 chow for 4 days. Food consumption was estimated by measuring food provided versus food remaining in the hopper. Blood was collected through tail vein from each animal at 9 a.m. and 4 p.m. 2 days after chow dosing started, and at 9 a.m. four days after chow dosing started, for PK determination. Plasma protein binding of Cmpd 1 was measured by equilibrium dialysis of the in vitro fraction unbound of Cmpd 1 at a concentration of […] in plasma from pooled male and female CD-1 mice. Plasma was centrifuged and supernatant was analyzed by liquid chromatography–tandem mass spectrometry to detect Cmpd 1 (York Bioanalytical Solutions; York, UK).

ZSF1 obese rats [4] = test: 7-day oral gavage study, food consumption and body weight; assay type: in vivo, rat; settings: 100 mpk daily oral gavage, 7 days
[5] = biological target: PKC activity in glomerular lysates from ZSF1 obese rats; test: Radioactive pan-PKC kinase assay with glomerular lysates; assay type: biochemical, rat; settings: glomerular lysates from 20-week old ZSF1 obese rats, pan-PKC pseudo-substrate peptide
Protocol: Glomeruli were isolated using an established protocol of serially sieving minced kidney cortex tissue through mesh filters of decreasing pore size[69]. For radioactive pan-PKC assays, glomeruli were lysed in a buffer consisting of 50 mM Tris–HCl pH 8, 5 mM EDTA, 5 mM EGTA, protease and phosphatase inhibitor cocktails, 1% 2-mercaptoethanol, and 0.028% n-dodecyl-β-D-maltopyranoside (Anatrace D310) by sonication using two 10 s pulses with a probe sonicator. Supernatants were collected following centrifugation at 4 °C at 20,200 × g for 10 min. A 25 μL aliquot was used in a 50 μL ^32P-ATP pan-PKC radioactive kinase assay with the pan-PKC pseudo-substrate peptide RFARKGSLRQKNV. The reaction was incubated for 10 min at 37 °C prior to filter binding and scintillation counting. Data are reported as CPM incorporation per μg of total protein in the reaction, as determined using Pierce Coomassie Plus Protein Assay of the original lysate (Pierce 23236). Where indicated, the reaction was run in the presence of increasing amounts of Cmpd 1.

PKCβ1 = PKCβ1 (Homo sapiens, UniProt P05771); test: Z'-Lyte recombinant enzyme assay, PKCβ1; assay type: biochemical
PKCβ1, sequence (P05771 whole entry): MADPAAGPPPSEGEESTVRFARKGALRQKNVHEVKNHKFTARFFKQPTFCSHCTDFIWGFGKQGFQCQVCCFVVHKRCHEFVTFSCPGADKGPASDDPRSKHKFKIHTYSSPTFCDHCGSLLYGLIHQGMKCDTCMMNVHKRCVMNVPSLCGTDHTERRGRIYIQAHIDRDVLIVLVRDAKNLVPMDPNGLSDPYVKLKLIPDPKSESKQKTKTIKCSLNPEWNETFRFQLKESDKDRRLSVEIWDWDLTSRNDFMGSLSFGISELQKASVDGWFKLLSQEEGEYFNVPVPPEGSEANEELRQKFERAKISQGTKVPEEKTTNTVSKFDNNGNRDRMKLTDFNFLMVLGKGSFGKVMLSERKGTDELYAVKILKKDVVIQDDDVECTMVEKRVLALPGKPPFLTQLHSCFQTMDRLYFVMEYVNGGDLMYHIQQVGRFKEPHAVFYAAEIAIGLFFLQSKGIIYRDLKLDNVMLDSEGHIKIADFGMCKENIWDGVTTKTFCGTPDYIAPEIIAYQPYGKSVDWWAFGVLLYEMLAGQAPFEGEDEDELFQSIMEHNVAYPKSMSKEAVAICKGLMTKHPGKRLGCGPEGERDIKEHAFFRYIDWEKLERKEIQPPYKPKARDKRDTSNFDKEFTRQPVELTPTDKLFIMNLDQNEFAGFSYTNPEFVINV
Protocol: as §1

PKCε = biological target: T1, PKCε (Homo sapiens, UniProt Q02156); test: Z'-Lyte recombinant enzyme assay, PKCε; assay type: biochemical
T1 sequence (Q02156 1-737): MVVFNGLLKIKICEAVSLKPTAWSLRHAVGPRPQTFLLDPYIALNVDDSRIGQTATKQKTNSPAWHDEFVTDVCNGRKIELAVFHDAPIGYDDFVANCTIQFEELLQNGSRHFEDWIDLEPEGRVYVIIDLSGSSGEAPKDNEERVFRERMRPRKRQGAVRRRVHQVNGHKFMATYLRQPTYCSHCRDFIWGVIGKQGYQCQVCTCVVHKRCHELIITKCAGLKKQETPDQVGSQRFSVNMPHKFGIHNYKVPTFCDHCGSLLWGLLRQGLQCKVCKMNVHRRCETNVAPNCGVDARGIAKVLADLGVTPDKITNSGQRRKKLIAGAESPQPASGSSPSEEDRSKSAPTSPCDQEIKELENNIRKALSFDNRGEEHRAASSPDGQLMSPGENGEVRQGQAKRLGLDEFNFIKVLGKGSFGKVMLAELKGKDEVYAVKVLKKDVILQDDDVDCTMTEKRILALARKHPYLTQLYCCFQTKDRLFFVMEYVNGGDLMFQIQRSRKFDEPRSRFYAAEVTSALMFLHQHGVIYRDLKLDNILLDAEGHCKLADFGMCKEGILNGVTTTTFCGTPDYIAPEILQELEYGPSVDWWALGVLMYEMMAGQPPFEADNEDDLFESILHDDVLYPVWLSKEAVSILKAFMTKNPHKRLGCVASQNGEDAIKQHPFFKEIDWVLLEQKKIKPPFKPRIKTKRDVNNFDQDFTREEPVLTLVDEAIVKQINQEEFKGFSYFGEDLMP
Protocol: as §1

PKC family members = test: Selectivity within PKC family (enzymatic assays); assay type: biochemical; settings: PKC family members other than α, β, θ, γ
Protocol: as §1

PKCθ = PKCθ (Homo sapiens, UniProt Q04759); test: Z'-Lyte recombinant enzyme assay, PKCθ; assay type: biochemical
PKCθ, sequence (Q04759 whole entry): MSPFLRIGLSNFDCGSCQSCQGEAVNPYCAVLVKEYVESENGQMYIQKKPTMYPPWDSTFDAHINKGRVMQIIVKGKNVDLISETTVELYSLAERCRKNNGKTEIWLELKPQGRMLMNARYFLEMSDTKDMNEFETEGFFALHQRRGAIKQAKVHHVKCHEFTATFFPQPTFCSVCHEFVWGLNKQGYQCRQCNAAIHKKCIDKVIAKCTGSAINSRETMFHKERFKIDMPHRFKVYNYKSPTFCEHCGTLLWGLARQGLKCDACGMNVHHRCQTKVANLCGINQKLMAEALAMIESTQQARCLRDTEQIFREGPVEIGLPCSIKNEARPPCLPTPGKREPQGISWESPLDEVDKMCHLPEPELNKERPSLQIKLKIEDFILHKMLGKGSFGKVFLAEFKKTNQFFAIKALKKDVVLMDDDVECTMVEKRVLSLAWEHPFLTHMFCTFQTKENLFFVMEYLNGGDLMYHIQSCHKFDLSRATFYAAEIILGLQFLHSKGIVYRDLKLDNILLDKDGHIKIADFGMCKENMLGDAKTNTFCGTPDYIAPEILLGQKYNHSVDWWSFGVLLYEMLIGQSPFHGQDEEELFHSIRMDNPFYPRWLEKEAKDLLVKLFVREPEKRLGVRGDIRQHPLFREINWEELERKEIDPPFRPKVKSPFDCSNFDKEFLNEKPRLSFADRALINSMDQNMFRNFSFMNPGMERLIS
Protocol: as §1

PKCδ = PKCδ (Homo sapiens, UniProt Q05655); test: Z'-Lyte recombinant enzyme assay, PKCδ; assay type: biochemical
PKCδ, sequence (Q05655 whole entry): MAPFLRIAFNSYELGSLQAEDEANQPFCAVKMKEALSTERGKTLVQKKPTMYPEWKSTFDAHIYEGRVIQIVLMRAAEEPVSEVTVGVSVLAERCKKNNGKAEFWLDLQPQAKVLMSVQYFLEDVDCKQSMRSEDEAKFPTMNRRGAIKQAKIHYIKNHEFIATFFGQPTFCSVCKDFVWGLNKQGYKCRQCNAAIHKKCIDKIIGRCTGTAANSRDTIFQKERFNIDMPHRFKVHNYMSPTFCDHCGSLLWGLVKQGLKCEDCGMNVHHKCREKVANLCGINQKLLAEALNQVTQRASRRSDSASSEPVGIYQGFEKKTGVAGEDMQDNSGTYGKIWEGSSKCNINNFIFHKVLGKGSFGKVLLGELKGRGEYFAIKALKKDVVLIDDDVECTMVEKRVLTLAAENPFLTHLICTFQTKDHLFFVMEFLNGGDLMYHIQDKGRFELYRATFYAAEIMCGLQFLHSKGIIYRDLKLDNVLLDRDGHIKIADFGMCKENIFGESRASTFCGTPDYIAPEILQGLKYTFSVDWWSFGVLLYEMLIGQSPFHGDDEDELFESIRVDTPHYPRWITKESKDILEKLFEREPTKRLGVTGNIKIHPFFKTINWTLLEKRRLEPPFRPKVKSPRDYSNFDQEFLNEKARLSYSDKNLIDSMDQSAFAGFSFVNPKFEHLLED
Protocol: as §1

pIC50 (PKCα): 8.70
pIC50 (PKCη): 5.82
pIC50 [2]: 7.12
Free drug concentration in serum, evening ([3]; 4 p.m.): ~400 nM
Free drug concentration in serum, morning ([3]; 9 a.m.): roughly 700 nM
pIC50 [5]: 7.15
pIC50 (PKCβ1): 7.96
pIC50 (PKCε): 6.21
pIC50 (PKCθ): 7.55
pIC50 (PKCδ): 5.81
Structure (SMILES): Cc1ncc(F)c(Nc2n[nH]c3c2CN(C(=O)N2C[C@@H](C)N(CC4CCOCC4)C[C@@H]2C)C3(C)C)n1 [Cmpd 1, 5-[(2S,5R)-2,5-dimethyl-4-(tetrahydro-2H-pyran-4-ylmethyl)piperazin-l-yl]carbonyl-N-(5-fluoro-2-methylpyrimidin-4-yl)-6,6-dimethyl-1,4,5,6-tetrahydropyrrolo[3,4-c]pyrazol-3-amine]
Average food consumption (ZSF1 obese rats [1]): 24 g/day
Body weight change (ZSF1 obese rats [1]): lost weight
Reduction in food consumption versus no-drug chow (ZSF1 obese rats [1]): 37%
Body weight loss (ZSF1 lean and SD rats): did not
Animal body weights (ZSF1 obese rats [4]): decreased
Food consumption (ZSF1 obese rats [4]): decreased
Selectivity against all other PKC family members (PKC family members): greater than 40 fold

From publication PMC10560236, “A protein kinase C α and β inhibitor blunts hyperphagia to halt renal function decline and reduces adiposity in a rat model of obesity-driven type 2 diabetes” (Scientific Reports, 2023)
